Experimental data from BindingDB's records for doi:10.1016/j.bmcl.2012.03.099 (Rhône-Poulenc Rorer, 2012).

biological target: Mitogen-activated protein kinase 14 (Homo sapiens) (UniProt Q16539); assay: Inhibition of p38alpha
Sequence (Q16539 whole entry, looked up): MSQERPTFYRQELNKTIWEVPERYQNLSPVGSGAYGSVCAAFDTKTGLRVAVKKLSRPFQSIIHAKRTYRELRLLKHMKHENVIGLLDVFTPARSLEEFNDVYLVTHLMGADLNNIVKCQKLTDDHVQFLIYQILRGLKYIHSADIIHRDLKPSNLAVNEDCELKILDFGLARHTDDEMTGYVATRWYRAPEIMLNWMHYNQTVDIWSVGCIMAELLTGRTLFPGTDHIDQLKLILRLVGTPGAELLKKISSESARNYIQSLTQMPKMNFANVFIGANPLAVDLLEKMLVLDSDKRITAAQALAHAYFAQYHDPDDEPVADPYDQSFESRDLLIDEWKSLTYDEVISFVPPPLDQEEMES

Going from `CC(C)(C)c1nnc2ccc(Sc3ccc(F)cc3F)cn12` to `Cc1ccc(C(=O)NC2CC2)cc1-c1ccn2c(C(C)(C)C)nnc2c1`, the IC50 falls from 62 nM to 16 nM (3.9-fold). The second is the more potent here.

Compared with `Cc1c(F)cc(C(=O)NC2CC2)cc1-c1c(F)cn2c(C(C)(C)C)nnc2c1F`, `Cc1c(F)cc(C(=O)NC2CC2)cc1-c1c(F)cn2c(C(C)(C)N)nnc2c1F` is 1.9-fold higher in IC50: 6.2 nM for the first, 12 nM for the second. The first is the more potent here.

Compared with `Cc1c(F)cc(C(=O)NC2CC2)cc1-c1ccn2c(C(F)(F)F)nnc2c1`, `Cc1c(F)cc(C(=O)NC2CC2)cc1-c1ccn2c(C(C)(C)N)nnc2c1` is 5.5-fold lower in IC50: 85 nM for the first, 15.4 nM for the second. The second is the more potent here.

Going from `Cc1c(F)cc(C(=O)NC2CC2)cc1-c1ccn2c(C(N)=O)nnc2c1` to `Cc1c(F)cc(C(=O)NC2CC2)cc1-c1ccn2c(C(C)(C)O)nnc2c1`, the IC50 falls from 102 nM to 3.1 nM (33-fold).

Compared with `COC(C)(C)c1nnc2cc(-c3cc(C(=O)NC4CC4)cc(F)c3C)ccn12`, `Cc1c(F)cc(C(=O)NC2CC2)cc1-c1ccn2c(C(C)(C)C)nnc2c1` is 4.7-fold lower in IC50: 9.4 nM for the first, 2 nM for the second.

Going from `CC(=O)NC(C)(C)c1nnc2cc(-c3cc(C(=O)NC4CC4)cc(F)c3C)ccn12` to `Cc1c(F)cc(C(=O)NC2CC2)cc1-c1ccn2c(C(C)(C)NS(C)(=O)=O)nnc2c1`, the IC50 falls from 253 nM to 17 nM (15-fold). The second is the more potent here.

Compared with `Cc1c(F)cc(C(=O)NC2CC2)cc1-c1ccn2c(C(C)(C)N(C)C)nnc2c1`, `Cc1c(F)cc(C(=O)NC2CC2)cc1-c1ccn2c(C(C)C)nnc2c1` is 1.8-fold higher in IC50: 1.7 nM for the first, 3 nM for the second. The first is the more potent here.

First: Cc1ccc(C(=O)NC2CC2)cc1-c1c(F)cn2c(C(C)(C)C)nnc2c1F
Second: Cc1c(F)cc(C(=O)NC2CC2)cc1-c1c(F)cn2c(C(C)(C)N(C)C)nnc2c1F
The IC50 of the first is 3.3-fold higher: 49 nM for the first, 15 nM for the second.

`Cc1c(F)cc(C(=O)NC2CC2)cc1-c1c(F)cn2c(C(C)C)nnc2c1F` and `Cc1c(F)cc(C(=O)NC2CC2)cc1-c1c(F)cn2c(C3CC3)nnc2c1F` are within 1.5-fold of each other in IC50: 6.7 nM for the first, 10 nM for the second.

First: Cc1c(F)cc(C(=O)NC2CC2)cc1-c1c(F)cn2c(-c3ccncc3Cl)nnc2c1F
Second: Cc1c(F)cc(C(=O)NC2CC2)cc1-c1ccn2c(-c3ccncc3Cl)nnc2c1
The IC50 of the first is 28-fold higher: 23 nM for the first, 0.83 nM for the second. The second is the more potent here.

`Cc1ccc(C(=O)NC2CC2)cc1-c1ccc2c(N3CCCCC3)noc2c1` and `Cc1ccc(C(=O)NC2CC2)cc1-c1ccn2c(C3CCC3)nnc2c1` are within 1.5-fold of each other in IC50: 14 nM for the first, 20 nM for the second.

First: Cc1ccc(C(=O)NC2CC2)cc1-c1ccn2c(C(C)C)nnc2c1
Second: COC(C)c1nnc2cc(-c3cc(C(=O)NC4CC4)ccc3C)ccn12 (stereo not given)
The IC50 of the first is 1.6-fold lower: 27 nM for the first, 43 nM for the second. The first is the more potent here.

Compared with `Cc1ccc(C(=O)NC2CC2)cc1-c1ccn2c(C3(C)CC3)nnc2c1`, `Cc1c(F)cc(C(=O)NC2CC2)cc1-c1ccn2c(C3(C)CC3)nnc2c1` is 19-fold lower in IC50: 12 nM for the first, 0.64 nM for the second. The second is the more potent here.

First: Cc1c(F)cc(C(=O)NC2CC2)cc1-c1ccn2c(C3CCC3)nnc2c1
Second: Cc1c(F)cc(C(=O)NC2CC2)cc1-c1ccn2c(C3CC3)nnc2c1
The IC50 of the first is 3.5-fold lower: 1.9 nM for the first, 6.7 nM for the second. The first is the more potent here.

Going from `Cc1ccc(C(=O)NC2CC2)cc1-c1ccn2c(C3CCOCC3)nnc2c1` to `Cc1c(F)cc(C(=O)NC2CC2)cc1-c1ccn2c(C3CCOCC3)nnc2c1`, the IC50 falls from 56 nM to 30 nM (1.9-fold).

Compared with `Cc1ccc(C(=O)NC2CC2)cc1-c1ccn2c(-c3ccccc3Cl)nnc2c1`, `Cc1ccc(C(=O)NC2CC2)cc1-c1ccn2c(-c3ccncc3Cl)nnc2c1` is 6-fold higher in IC50: 6.3 nM for the first, 38 nM for the second. The first is the more potent here.

Going from `Cc1c(F)cc(C(=O)NC2CC2)cc1-c1ccn2c(-c3ccccc3Cl)nnc2c1` to `COC(C)c1nnc2cc(-c3cc(C(=O)NC4CC4)cc(F)c3C)ccn12` (stereo not given), the IC50 rises from 1.6 nM to 18 nM (11-fold). The first is the more potent here.

`Cc1ccc(C(=O)NC2CC2)cc1-c1ccn2c(C(F)(F)F)nnc2c1` gave an IC50 of 853 nM.
